Results from publication PMC11659602, “Discovering covalent cyclic peptide inhibitors of peptidyl arginine deiminase 4 (PADI4) using mRNA-display with a genetically encoded electrophilic warhead” (Communications Chemistry, 2024).
Several values for one entry are separate records, joined by “and”; a condition that tells them apart may be missing. Identical values can stand only once. Like-named read-outs stand apart in the source and are kept apart here. Values belong to the molecule of their own block, whether it stands above or below them. Where a SMILES comes first, the peptide text is derived from it. Bridges are numbered along the chain shown (N, C = ends). [ ]: non-standard residue; d: D form. Orn(fluoroacetimidoyl) = N=C(CF)NCCC[C@H](N)C(=O)O

Tests used:
[1] = target: T1, PADI4 (Homo sapiens, UniProt Q9UM07); experiment: Incubation time-dependent COLDER assay IC50(t), Krippendorff fit; format: biochemical; conditions: for Ki / kinact: Krippendorff fit of IC50 vs time
T1 construct: His6; made in house
Procedure: (§1) To determine KI and kinact of covalent peptide inhibitors, COLDER assays were used[52]. Peptide dilutions were prepared using 5-fold dilutions from 500 µM and 300 µM to 0.8 µM and 2.4 µM, respectively, at 1% DMSO in COLDER buffer (50 mM HEPES, 150 mM NaCl and 2 mM DTT, pH 7.5). The 9 peptide dilutions were added to a 96-well plate, alongside a 1% DMSO control. An equal volume of 10 mM BAEE was added to each well and the solution was homogenised by pipette mixing. This was mixed with 50 nM His-PADI4, 0.6 mg/mL BSA and 10 mM CaCl2, in COLDER buffer, to bring the final volume to 300 µL in each well. Alternatively, His-PAD1 (100 nM) /His-PADI2 (100 nM) /His-PADI3 (250 nM) were used. For assays with PADI1 and PADI3, 10 mM N^α-benzoyl-L-arginine methyl […] (BAME) was used as the substrate instead of BAEE[48],[58],[59]. At 15-minute intervals, for 5 timepoints, 50 µL of solution was taken from each well and quenched with 10 µL EDTA (300 mM). 200 µL of COLDER solution containing 20 mM diacetyl monoxime/2,3-butanedione monoxime (Merck), 0.5 mM thiosemicarbazide (Acros Organics), 2.25 M H3PO4, 4.5 M H2SO4 and 1.5 mM NH4Fe(SO4)2.12H2O was added to each well. Samples were incubated for 20 min at 95 °C before measuring absorbance at 540 nm on a CLARIOstar Plus (BMG LABTECH). IC50 values for each time point were determined using non-linear regression with GraphPad Prism. Incubation time–dependent potency IC50(t) against incubation time was fitted to the Krippendorff equation (below) to determine KI and kinact using a Python script[53],[59]. […] IC50t=KI1+S/KM⋅2−2e^−ηIC50⋅kinact⋅t/ηIC50⋅kinact⋅t−1 WhereηIC50=IC50t/KI1+S/KM+IC50t

[2] = target: T2, PADI1 (Homo sapiens, UniProt Q9ULC6); experiment: Incubation time-dependent COLDER assay, selectivity; format: biochemical; conditions: for PADI1 activity normalised to 0.1% DMSO: quenched after 60 mins
T2 construct: human PADI1 (residue 1-663); made in house; host or cells: E. coli NiCo21(DE3)
T2 sequence (Q9ULC6 1-663): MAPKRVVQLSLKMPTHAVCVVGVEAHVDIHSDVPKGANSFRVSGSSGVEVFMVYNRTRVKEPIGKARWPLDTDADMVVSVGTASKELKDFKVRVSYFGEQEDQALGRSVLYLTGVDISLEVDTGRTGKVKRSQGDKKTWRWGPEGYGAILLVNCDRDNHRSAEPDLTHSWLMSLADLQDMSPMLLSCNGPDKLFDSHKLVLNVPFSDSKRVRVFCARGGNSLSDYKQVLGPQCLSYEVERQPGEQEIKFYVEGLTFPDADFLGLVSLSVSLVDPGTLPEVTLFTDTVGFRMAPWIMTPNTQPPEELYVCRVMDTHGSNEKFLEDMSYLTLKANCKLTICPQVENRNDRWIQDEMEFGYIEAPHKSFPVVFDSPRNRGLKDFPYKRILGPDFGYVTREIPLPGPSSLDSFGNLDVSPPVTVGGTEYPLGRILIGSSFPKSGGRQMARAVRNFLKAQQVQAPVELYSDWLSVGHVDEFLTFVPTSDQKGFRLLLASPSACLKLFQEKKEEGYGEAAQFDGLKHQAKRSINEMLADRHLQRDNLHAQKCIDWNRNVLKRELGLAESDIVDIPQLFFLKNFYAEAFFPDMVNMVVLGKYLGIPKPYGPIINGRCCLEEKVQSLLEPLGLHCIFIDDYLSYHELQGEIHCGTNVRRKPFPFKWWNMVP
Procedure: as §1

[3] = target: T1, PADI4; experiment: Surface plasmon resonance (SPR), single cycle kinetics; format: binding; conditions: for Ki: k-1/k+1
Method in brief: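 Biotinylated His-PADI4 captured on CAP chip (~3000 RU); peptides as 5-point 3-fold series in HEPES, 150 mM NaCl, 10 mM CaCl2, 0.1% DMSO, pH 7.5, triplicate. Warhead peptides fitted two-state (k-2 = 0; Ki = k-1/k+1, kinact = k+2); others 1:1.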

[4] = 15 mins, replicates, read-out: apparent IC50
[5] = 30 mins, replicates, read-out: apparent IC50
[6] = 45 mins, replicates, read-out: apparent IC50
[7] = 60 mins, replicates, read-out: apparent IC50
[8] = 75 mins, replicates, read-out: apparent IC50
[9] = each replicate, read-out: k2 / kinact
[10] = two-state reaction model, k+2, read-out: SPR kinact (converted)

T1 sequence (Q9UM07 whole entry): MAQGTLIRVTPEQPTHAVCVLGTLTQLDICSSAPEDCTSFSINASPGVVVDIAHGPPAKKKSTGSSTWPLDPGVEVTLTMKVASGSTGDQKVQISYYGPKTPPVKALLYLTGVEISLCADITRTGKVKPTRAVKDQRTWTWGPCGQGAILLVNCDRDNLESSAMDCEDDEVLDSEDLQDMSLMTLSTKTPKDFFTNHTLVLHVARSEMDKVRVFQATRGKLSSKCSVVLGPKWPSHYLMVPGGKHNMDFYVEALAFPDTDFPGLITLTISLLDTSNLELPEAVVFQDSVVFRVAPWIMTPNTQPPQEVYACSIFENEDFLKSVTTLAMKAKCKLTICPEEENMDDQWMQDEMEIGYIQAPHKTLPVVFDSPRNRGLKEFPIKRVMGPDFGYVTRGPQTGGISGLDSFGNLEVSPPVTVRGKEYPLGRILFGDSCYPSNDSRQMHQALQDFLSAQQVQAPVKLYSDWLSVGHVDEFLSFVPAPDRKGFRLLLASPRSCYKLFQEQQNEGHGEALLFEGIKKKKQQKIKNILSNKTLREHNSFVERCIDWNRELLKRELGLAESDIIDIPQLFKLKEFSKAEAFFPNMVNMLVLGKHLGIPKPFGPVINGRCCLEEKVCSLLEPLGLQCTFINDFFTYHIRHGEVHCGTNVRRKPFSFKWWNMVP

kinact/KI [1]: 3550 M⁻¹ s⁻¹ | IC50 ([1]; 60-minute time point, no preincubation, read-out: PADI4 IC50): 0.85 µM | IC50 [1, 4]: 4.15 µM and 3.69 µM and 2.68 µM | IC50 [1, 5]: 1.49 µM and 1.39 µM and 1.52 µM | IC50 [1, 6]: 0.996 µM and 1.15 µM and 1.21 µM | remaining activity at 0.048 µM ([1]; 1 h, 0.048 µM, quenched after 60 mins, read-out: PADI4 activity normalised to 0.1% DMSO): 98.8% | remaining activity at 0.08 µM ([1]; 1 h, 0.08 µM, quenched after 60 mins, read-out: PADI4 activity normalised to 0.1% DMSO): 93.4% | remaining activity at 0.24 µM ([1]; 1 h, 0.24 µM, quenched after 60 mins, read-out: PADI4 activity normalised to 0.1% DMSO): 87.8% | remaining activity at 0.4 µM ([1]; 1 h, 0.4 µM, quenched after 60 mins, read-out: PADI4 activity normalised to 0.1% DMSO): 76.7% | remaining activity at 1.2 µM ([1]; 1 h, 1.2 µM, quenched after 60 mins, read-out: PADI4 activity normalised to 0.1% DMSO): 35.6% | remaining activity at 2 µM ([1]; 1 h, 2 µM, quenched after 60 mins, read-out: PADI4 activity normalised to 0.1% DMSO): 23.1% | remaining activity at 6 µM ([1]; 1 h, 6 µM, quenched after 60 mins, read-out: PADI4 activity normalised to 0.1% DMSO): 12.5% | remaining activity at 10 µM ([1]; 1 h, 10 µM, quenched after 60 mins, read-out: PADI4 activity normalised to 0.1% DMSO): 7.1% | IC50 [1, 7]: 0.809 µM and 0.775 µM and 0.965 µM | IC50 [1, 8]: 0.752 µM and 0.784 µM and 0.78 µM | Ki [1]: 0.78 ± 0.06 µM | kinact [1]: 0.00283 s⁻¹ | PADI1 activity normalised to 0.1% DMSO ([2]; 0.08 µM): 100.799 and 102.269 | PADI1 activity normalised to 0.1% DMSO ([2]; 0.24 µM): 99.0011 and 78.928 | PADI1 activity normalised to 0.1% DMSO ([2]; 0.4 µM): 101.598 and 103.89 | PADI1 activity normalised to 0.1% DMSO ([2]; 1.2 µM): 101.532 and 99.3516 | PADI1 activity normalised to 0.1% DMSO ([2]; 2 µM): 105.527 and 101.88 | PADI1 activity normalised to 0.1% DMSO ([2]; 6 µM): 100.999 and 97.3417 | PADI1 activity normalised to 0.1% DMSO ([2]; 10 µM): 97.1365 and 102.594 | PADI1 activity normalised to 0.1% DMSO ([2]; 30 µM): 94.4062 and 95.3966 | PADI1 activity normalised to 0.1% DMSO ([2]; 50 µM): 83.818 and 84.4392 | kinact/KI [3]: 26600 M⁻¹ s⁻¹ | k2 / kinact ([3]; each replicate): 0.0051 s⁻¹ | kinact [3, 9]: 0.0028 s⁻¹ | kinact [3, 10]: 0.00417 s⁻¹ | Ki ([3]; two-state reaction model): 0.16 ± 0.03 µM
Structure (SMILES): CC(C)C[C@@H]1NC(=O)[C@H](CCCCN)NC(=O)[C@H](CO)NC(=O)[C@H](CO)NC(=O)[C@H](Cc2ccc(O)cc2)NC(=O)[C@H](Cc2c[nH]cn2)NC(=O)[C@H](CCCNC(=N)CF)NC(=O)[C@H](CC(=O)O)NC(=O)[C@H](CC(C)C)NC(=O)[C@@H](Cc2ccc(O)cc2)NC(=O)CSC[C@@H](C(=O)NCC(N)=O)NC(=O)[C@H](Cc2ccc(O)cc2)NC1=O [cP4_15, yLD(2)HYSSKLYCG] ({CH2CO}-[dY]LD[Orn(fluoroacetimidoyl)]HYSSKLYCG-NH2; thioether N-12)

kinact/KI [1]: 1230 M⁻¹ s⁻¹ | IC50 [1, 4]: 8.81 µM and 8.73 µM and 8.28 µM | IC50 [1, 5]: 4.67 µM and 4.78 µM and 4.31 µM | IC50 [1, 6]: 3.42 µM and 4.19 µM and 3.18 µM | IC50 [1, 7]: 3.08 µM and 3.1 µM and 2.67 µM | IC50 [1, 8]: 2.72 µM and 2.53 µM and 2.47 µM | Ki [1]: 1.9 ± 0.1 µM | kinact [1]: 0.00217 s⁻¹ | PADI4 activity, normalised (Figure S11c) ([1]; cP4_4 0.08 µM): 98.2718 and 96.1223 and 99.8314 | PADI4 activity, normalised (Figure S11c) ([1]; cP4_4 0.24 µM): 93.4756 and 94.2113 | PADI4 activity, normalised (Figure S11c) ([1]; cP4_4 0.4 µM): 100.554 and 87.7482 | PADI4 activity, normalised (Figure S11c) ([1]; cP4_4 1.2 µM): 75.0589 and 75.4411 and 70.326 | PADI4 activity, normalised (Figure S11c) ([1]; cP4_4 2 µM): 67.2548 and 61.3338 | PADI4 activity, normalised (Figure S11c) ([1]; cP4_4 6 µM): 29.9549 and 26.3769 | PADI4 activity, normalised (Figure S11c) ([1]; cP4_4 10 µM): 22.5225 and 20.5991 and 19.0146 | PADI4 activity, normalised (Figure S11c) ([1]; cP4_4 30 µM): 7.3132 and 8.5351 and 5.9198 | PADI4 activity, normalised (Figure S11c) ([1]; cP4_4 50 µM): 3.0999 and 5.4575 and 3.9528 | PADI1 activity, normalised (Figure S11c) ([2]; cP4_4 0.08 µM): 100 and 102.598 | PADI1 activity, normalised (Figure S11c) ([2]; cP4_4 0.24 µM): 93.9237 and 90.941 | PADI1 activity, normalised (Figure S11c) ([2]; cP4_4 0.4 µM): 98.9277 and 105.899 | PADI1 activity, normalised (Figure S11c) ([2]; cP4_4 1.2 µM): 98.9873 and 104.073 | PADI1 activity, normalised (Figure S11c) ([2]; cP4_4 2 µM): 100.477 and 105.618 | PADI1 activity, normalised (Figure S11c) ([2]; cP4_4 6 µM): 94.7578 and 98.4551 | PADI1 activity, normalised (Figure S11c) ([2]; cP4_4 10 µM): 89.6942 and 96.559 | PADI1 activity, normalised (Figure S11c) ([2]; cP4_4 30 µM): 69.6188 and 76.5449 | PADI1 activity, normalised (Figure S11c) ([2]; cP4_4 50 µM): 54.4281 and 69.382 | kinact/KI [3]: 15200 M⁻¹ s⁻¹ | k2 / kinact ([3]; each replicate): 0.0019 s⁻¹ | kinact [3, 9]: 0.0017 s⁻¹ | kinact [3, 10]: 0.00183 s⁻¹ | Ki ([3]; two-state reaction model): 0.12 ± 0.01 µM
Structure (SMILES): N=C(N)NCCC[C@@H]1NC(=O)[C@H](CCCNC(=N)CF)NC(=O)[C@H](CC(=O)O)NC(=O)[C@H](Cc2ccc(O)cc2)NC(=O)[C@H](CCCCN)NC(=O)[C@H](CO)NC(=O)[C@@H](Cc2ccc(O)cc2)NC(=O)CSC[C@@H](C(=O)NCC(N)=O)NC(=O)[C@H](CC(=O)O)NC(=O)[C@H](CCCNC(=N)N)NC(=O)[C@@H]2CCCN2C(=O)[C@H](CO)NC1=O [cP4_4, ySKYD(2)RSPRDCG] ({CH2CO}-[dY]SKYD[Orn(fluoroacetimidoyl)]RSPRDCG-NH2; thioether N-12)
